Test: Stability of CV-8972 in aqueous solution at different concentrations and pH
Assay type: physicochemical
Description: The stability of CV-8972 was analyzed. Aqueous samples containing CV-8972 at different concentrations and pH were incubated for various periods and analyzed.
Form A of CV-8972 were analyzed for stability in aqueous solution. Aqueous samples containing CV-8972 at different concentrations and pH were incubated for various periods and analyzed.

With `COc1ccc(CN2CCN(CCOC(=O)c3cccnc3)CC2)c(OC)c1OC.Cl.O` [276-MBA-172] the “Retention Time 5.6 (CV-8972 purity)” value (2 mg/mL pH 6 (Form A), 1 hrs, PH 6.1) was 97.22, the “Retention Time 5.6 (CV-8972 purity)” value (2 mg/mL pH 6 (Form A), 4 hrs, PH 6.1) was 97.01 and the “Retention Time 5.6 (CV-8972 purity)” value (2 mg/mL pH 6 (Form A), 6 hrs, PH 6.1) was 96.51. The “Retention Time 5.6 (CV-8972 purity)” value (2 mg/mL pH 7 (Form A), 1 hrs, PH 6.8) was 95.06, the “Retention Time 5.6 (CV-8972 purity)” value (2 mg/mL pH 7 (Form A), 4 hrs, PH 6.7) was 93.7 and the “Retention Time 5.6 (CV-8972 purity)” value (2 mg/mL pH 7 (Form A), 6 hrs, PH 6.7) was 92.12. The “Retention Time 5.6 (CV-8972 purity)” value (2 mg/mL pH 7 (Form A), 22 hrs, PH 6.8) was 91.07, the “Retention Time 5.6 (CV-8972 purity)” value (10 mg/mL pH 6 (Form A), 1 hrs, PH 6.8) was 93.43 and the “Retention Time 5.6 (CV-8972 purity)” value (10 mg/mL pH 6 (Form A), 4 hrs, PH 6.8) was 91.82. For the same compound, the “Retention Time 5.6 (CV-8972 purity)” value (10 mg/mL pH 6 (Form A), 6 hrs, PH 6.7) was 91.8, the “Retention Time 5.6 (CV-8972 purity)” value (10 mg/mL pH 6 (Form A), 22 hrs, PH 6.7) was 89.66 and the “Retention Time 5.6 (CV-8972 purity)” value (10 mg/mL pH 7 (Form A), 1 hrs, PH 7.2) was 89.05. For the same compound, the “Retention Time 5.6 (CV-8972 purity)” value (10 mg/mL pH 7 (Form A), 4 hrs, PH 7.1) was 86.8 and the “Retention Time 5.6 (CV-8972 purity)” value (10 mg/mL pH 7 (Form A), 6 hrs, PH 7.1) was 84.79.
In the case of `COc1ccc(CN2CCN(CCOC(=O)c3cccnc3)CC2)c(OC)c1OC.Cl.O` [289-MBA-15-A], the “Retention Time 5.6 (CV-8972 purity)” value (2 mg/mL pH 6 (Form B), 1 hrs, PH 6.9) is reported as 95.1, the “Retention Time 5.6 (CV-8972 purity)” value (2 mg/mL pH 6 (Form B), 4 hrs, PH 6.8) is reported as 92.45 and the “Retention Time 5.6 (CV-8972 purity)” value (2 mg/mL pH 6 (Form B), 6 hrs, PH 6.8) is reported as 90.65. For the same compound, the “Retention Time 5.6 (CV-8972 purity)” value (2 mg/mL pH 6 (Form B), 22 hrs, PH 6.7) was 89.15, the “Retention Time 5.6 (CV-8972 purity)” value (2 mg/mL pH 7 (Form B), 1 hrs, PH 6.6) was 95.46 and the “Retention Time 5.6 (CV-8972 purity)” value (2 mg/mL pH 7 (Form B), 4 hrs, PH 6.5) was 93.92. For the same compound, the “Retention Time 5.6 (CV-8972 purity)” value (10 mg/mL pH 6 (Form B), 1 hrs, PH 6.1) was 94.81, the “Retention Time 5.6 (CV-8972 purity)” value (10 mg/mL pH 6 (Form B), 4 hrs, PH 6) was 94.69 and the “Retention Time 5.6 (CV-8972 purity)” value (10 mg/mL pH 6 (Form B), 6 hrs, PH 5.9) was 94.39. For the same compound, the “Retention Time 5.6 (CV-8972 purity)” value (10 mg/mL pH 6 (Form B), 22 hrs, PH 5.9) was 93.93, the “Retention Time 5.6 (CV-8972 purity)” value (10 mg/mL pH 7 (Form B), 1 hrs, PH 7.4) was 86.18 and the “Retention Time 5.6 (CV-8972 purity)” value (10 mg/mL pH 7 (Form B), 4 hrs, PH 7.4) was 82.36. The “Retention Time 5.6 (CV-8972 purity)” value (10 mg/mL pH 7 (Form B), 6 hrs, PH 7.3) was 79.37.
